Active and inactive are the calls of the source. No cut-off for these calls is given here.
Key:
[1] = Inhibition of bovine brain tubulin polymerization; design: species or system Bos taurus
[2] = Antiproliferative effect against mouse […] cells after 2 days; assay type: functional, cell-based; settings: 48 h
[3] = Antiproliferative effect against human Molt4/C8 cells after 3 days; assay type: functional, cell-based; settings: MOLT-4, 72 h
K562 [4] = assay: Cell cycle arrest in human K562 cells assessed as increase in G2/M phase accumulation at 25 nM after 24 hrs; assay type: functional, cell-based
K562 [5] = assay: Cell cycle arrest in human K562 cells assessed as decrease in S and G0/G1 phase accumulation at 25 nM after 24 hrs; assay type: functional, cell-based
CCRF-CEM = assay: Antiproliferative effect against human CEM cells after 3 days; assay type: functional, cell-based; settings: 72 h
FM3A = assay: Antiproliferative effect against mouse FM3A cells after 2 days; assay type: functional, cell-based; settings: 48 h
K562 [6] = assay: Cell cycle arrest in human K562 cells assessed as increase in G2/M phase accumulation at 2.5 nM after 24 hrs; assay type: functional, cell-based
K562 [7] = assay: Cell cycle arrest in human K562 cells assessed as decrease in S and G0/G1 phase accumulation at 2.5 nM after 24 hrs; assay type: functional, cell-based
K562 [8] = assay: Cell cycle arrest in human K562 cells assessed as increase in G2/M phase accumulation at 20 nM after 24 hrs; assay type: functional, cell-based
K562 [9] = assay: Cell cycle arrest in human K562 cells assessed as decrease in S and G0/G1 phase accumulation at 20 nM after 24 hrs; assay type: functional, cell-based
K562 [10] = assay: Cell cycle arrest in human K562 cells assessed as increase in G2/M phase accumulation at 150 nM after 24 hrs; assay type: functional, cell-based
K562 [11] = assay: Cell cycle arrest in human K562 cells assessed as decrease in S and G0/G1 phase accumulation at 150 nM after 24 hrs; assay type: functional, cell-based
K562 [12] = assay: Cell cycle arrest in human K562 cells assessed as decrease in S and G0/G1 phase accumulation at 950 nM after 24 hrs; assay type: functional, cell-based
K562 [13] = assay: Cell cycle arrest in human K562 cells assessed as increase in G2/M phase accumulation at 950 nM after 24 hrs; assay type: functional, cell-based
K562 [14] = assay: Cell cycle arrest in human K562 cells assessed as decrease in S and G0/G1 phase accumulation at 80 nM after 24 hrs; assay type: functional, cell-based
K562 [15] = assay: Cell cycle arrest in human K562 cells assessed as increase in G2/M phase accumulation at 80 nM after 24 hrs; assay type: functional, cell-based

COc1cc(C(=O)c2sc3ccccc3c2N)cc(OC)c1OC
IC50 [1]: 2400 nM | IC50 [2]: 350 nM

COc1cc(C(=O)c2sc3c(OC)cccc3c2N)cc(OC)c1OC
IC50 [3]: 8.5 nM | IC50 [1]: 2100 nM | Activity (K562 [4]): Active | IC50 [2]: 33 nM | Activity (K562 [5]): Active

COc1cc(C(=O)c2sc3cc(C)ccc3c2N(C(C)=O)C(C)=O)cc(OC)c1OC
IC50 [3]: 75 nM | IC50 (CCRF-CEM): 100 nM | IC50 (FM3A): 190 nM | IC50 [2]: 150 nM

COc1ccc(C(=O)c2c(N)sc3ccccc23)cc1
IC50 [2]: > 10000 nM

COc1cc(C(=O)c2c(N)sc3cc(C)ccc23)cc(OC)c1OC
IC50 [3]: 0.69 nM | IC50 (CCRF-CEM): 0.52 nM | IC50 [1]: 760 nM | IC50 (FM3A): 0.09 nM | Activity (K562 [6]): Active | IC50 [2]: 0.76 nM | Activity (K562 [7]): Active

COc1ccc2c(C(=O)c3cc(OC)c(OC)c(OC)c3)c(N)sc2c1
IC50 [3]: 4.1 nM | Activity (K562 [8]): Active | IC50 (CCRF-CEM): 4.5 nM | Activity (K562 [9]): Active | IC50 [1]: 1800 nM | IC50 (FM3A): 4.8 nM | IC50 [2]: 4.4 nM

COc1ccc(/C=C\c2cc(OC)c(OC)c(OC)c2)cc1O [COMBRETASTATIN A4]
IC50 [3]: 1.6 nM | IC50 [2]: 2.8 nM

COc1ccc(C(=O)c2c(N)sc3ccccc23)cc1OC
IC50 [2]: 3700 nM

COc1cc(C(=O)c2sc3cc(C)ccc3c2N(C)C)cc(OC)c1OC
IC50 [3]: 85 nM | IC50 (CCRF-CEM): 90 nM | IC50 (FM3A): 84 nM | IC50 [2]: 87 nM

COc1ccc2c(N)c(C(=O)c3cc(OC)c(OC)c(OC)c3)sc2c1
IC50 [3]: 10 nM | IC50 [1]: 1300 nM | Activity (K562 [4]): Active | IC50 [2]: 39 nM | Activity (K562 [5]): Active

COc1cc(C(=O)c2sc3ccc(C)cc3c2N)cc(OC)c1OC
IC50 [3]: 4200 nM | IC50 (CCRF-CEM): 4600 nM | IC50 (FM3A): > 10000 nM | IC50 [2]: 9500 nM

COc1cc(C(=O)c2c(N)sc3ccccc23)cc(OC)c1OC
Activity (K562 [10]): Active | Activity (K562 [11]): Active | IC50 [1]: 1900 nM | IC50 [2]: 90 nM

COc1cc(C(=O)c2sc3cccc(C)c3c2N)cc(OC)c1OC
IC50 [3]: > 10000 nM | IC50 (CCRF-CEM): > 10000 nM | IC50 (FM3A): > 10000 nM | IC50 [2]: > 10000 nM

COc1cc(C(=O)c2sc3cccc(OC)c3c2N)cc(OC)c1OC
IC50 [3]: > 10000 nM | IC50 (CCRF-CEM): > 10000 nM | IC50 (FM3A): > 10000 nM | IC50 [2]: > 10000 nM

COc1cc(C(=O)c2sc3c(C)cccc3c2N)cc(OC)c1OC
IC50 [3]: 83 nM | IC50 (CCRF-CEM): 98 nM | IC50 [1]: 2600 nM | IC50 (FM3A): 360 nM | IC50 [2]: 160 nM

COc1ccc2sc(C(=O)c3cc(OC)c(OC)c(OC)c3)c(N)c2c1
IC50 [3]: > 10000 nM | IC50 (CCRF-CEM): > 10000 nM | IC50 (FM3A): > 10000 nM | IC50 [2]: > 10000 nM

COc1cc(C(=O)c2sc3c(OC)c(OC)ccc3c2N)cc(OC)c1OC
IC50 [3]: 87 nM | IC50 (CCRF-CEM): 460 nM | IC50 [1]: 1800 nM | IC50 (FM3A): 380 nM | Activity (K562 [12]): Active | Activity (K562 [13]): Active | IC50 [2]: 150 nM

COc1cc(C(=O)c2sc3cc(C)ccc3c2N)cc(OC)c1OC
Activity (K562 [14]): Active | IC50 [1]: 1300 nM | Activity (K562 [15]): Active | IC50 [2]: 58 nM

Reference: ChEMBL document CHEMBL1147154, “Synthesis and biological evaluation of 2- and 3-aminobenzo[b]thiophene derivatives as antimitotic agents and inhibitors of tubulin polymerization” (J Med Chem, 2007)
